For series [1], the system named is orthotopic HepG2/Luc liver tumors. Briefly: Chemotherapy of orthotopic liver tumors (BL imaging, ex vivo BL and FL imaging).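 For tumor BL intensity of liver: bioluminescence quantified by ROI over liver region.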 The format is in vivo, mice. To be noted: for tumor BL over the course of treatment: 2.25 mg kg^−1 Pt i.v. on day 0, 3, 6, 9, 12; for tumor BL intensity of liver: day 15; for Normalized FL intensity of mCy (ex vivo liver tumor, Fig. 5h): day 15, livers sprayed with P-CyPt 10 μM, normalized to PBS group; for Normalized BL intensity (ex vivo liver tumor, Fig. 5h): day 15, normalized to PBS group. The protocol:
During the treatment, the body weights of mice were also measured every three days. On day 15, all mice were sacrificed, the whole liver were excised and photographed. Then, P-CyPt (10 μM) and D-luciferin (5 mM) were sprayed on the surface of each liver to performed ex vivo BL and NIR FL imaging. The BL images were acquired at 10 min using the BL imaging mode (Open), and the NIR FL images were acquired at 30 min, using a 660 nm excitation filter and a 750 ± 50 nm emission filter. The average BL and FL intensities were quantified by the ROIs measurement in the tumor region of liver using the Living Image Software (4.5.2, PerkinElmer, MA, U.S.A). Each experiment was conducted in four mice.

For another series, the system named is HeLa cells. The series is described as follows: Depletion of intracellular GSH. The format is cell-based, human. Further details: key to Intracellular GSH level after treatment (Supplementary Table S2): GSH content in fmol/cell. Particulars: for [GSH] after treatment / [GSH] depletion: HeLa cells, Pt drug 2 h, then fresh medium 24 h; for Intracellular GSH level after treatment (Supplementary Table S2): blank (before treatment) mean 12.88; for GSH-depletion: relative to blank (before treatment). The protocol:
Supplementary Tables 1-13 Supplementary Table 1. ICP-OES analysis of Pt in HeLa cells. a Pt drugs Pt element per cell Percentage of Pt element (fmol/cell) b taken up by cells (%) c P-CyPt 24.60 ± 3.5 36.9 ± 5.3 […] 1.73 ± 0.2 2.6 ± 0.3 CDDP 0.73 ± 0.09 1.1 ± 0.1 P-CyPt + Na3VO4 0.07 ± 0.01 0.1 ± 0.01 a HeLa cells were untreated or pre-treated with Na3VO4 (10 mM) for 20 min and then incubated with indicated Pt drug (10 μM) for 1 h. Then, the cells were trypsinized, collected, and the cell numbers were counted and digested with trace metal concentrated HNO3 (65~70%) and HCl (36~38%). The amount of Pt element was determined by ICP-OES. b Pt per cell represents the average amount of Pt element in one HeLa cell, which was calculated by dividing the total amount of Pt element in cells by the cell number. c Percentage of Pt taken up by cells was calculated by dividing the total amount of Pt elements in cells by the amount of Pt drugs added. Values denote mean ± s.d. (n = 3 independent experiments). Supplementary Table 2. Comparison of the intracellular GSH in HeLa cells before and after incubation with different Pt drugs. a Pt [GSH] before treatment [GSH] drugs (fmol/cell) [GSH] after treatment (fmol/cell) depletion b CDDP 11.81 ± 1.7 8.3% […] 11.71 ± 1.6 9.1% 12.88 ± 1.5 P-CyPt 8.07 ± 0.8 37.3% a HeLA cells were untreated or treated with different Pt drugs for 2 h. The cells were washed with PBS for three times, and replaced with fresh medium and incubated for another 24 h. After that, the cells were trypsinized, centrifuged and counted. The cell pellets were dispersed, lysed via sonication, and ultracentrifuged to obtain supernatant. The GSH content (nPt) in the supernatant was measured by a reported detection method. The content of GSH per cell ([GSH]) before and after treatment (nB and nA) was calculated according to the formula: […] GSH depletion: The GSH depletion (Δ) was calculated according to the formula: %Δ = (nB - nA)/ nB. Values denote mean ± s.d. (n = 3 independent experiments). 27 page 45: DNA […]-stained with 5x loading buffer in the TAE buffer and the resultant gel visualized by Gel DocTM XR+ (Bio-Rad) system. Depletion of intracellular GSH. HeLa cells (2×10^5 cells/well) in 2 mL DMEM medium were seeded onto 6-well plates and allowed to grow overnight. Then cells were then treated with […], or CDDP (10 μM), respectively. After that, cells were digested with trypsin and washed with PBS for 3 times. Then, cell pellets were dispersed in pre-chilled extraction solution (1 mL, 0.1 M potassium phosphate buffer containing 0.1% Triton, 0.6% sulfosalicylic acid, and 5 mM EDTA, pH 7.4) and sonicated with an US probe on ice for 2 min. To ensure that cells were lysed completely, the solution was further frozen and thawed twice. Finally, the solution was centrifuged at 3000 g at 4 °C for 4 min. The supernatant was taken to measure the GSH content using commercial GSH detection kit, according to a reported procedure (Nat. Protoc. 2006, 1, 3159). MCTS imaging and cytotoxicity. The three-dimensional multicellular spheroids (MCTS) of HeLa were cultured according to the method previously described (Nat. Protoc. 2009, 4, 309) with minor modifications. Briefly, a well of 96-well plates was covered by 50 μL of hot agarose solution (1.5 w/v %) and then cooled to form a layer of agaropectin. HeLa cells were seeded to the agaropectin-coated well at a density of 2×10^3 cells/well, and incubated to grow into spheroids. DMEM medium was replaced with fresh medium every 2 days until the diameter of tumor spheroids grows near 400 μm. Then, the MCSs were incubated with 10 μM P-CyPt or […] for 1 h, washed with PBS for 3 times. Blank DMEM medium was added, and incubated for another 24 h. After that, PI (4 μM) was added and incubated for 1 h. The medium was removed, and the spheroids were gently washed with PBS (×1), which was then carefully transferred to a glass bottom dish. […]

The next series deals with T1, ALP (Bos taurus, UniProt P19111).
T1 construct: Alkaline phosphatase from bovine; purchased Sigma-Aldrich; host or cells: bovine intestinal mucosa (tissue-derived)
T1 sequence (P19111 20-506 limits assumed): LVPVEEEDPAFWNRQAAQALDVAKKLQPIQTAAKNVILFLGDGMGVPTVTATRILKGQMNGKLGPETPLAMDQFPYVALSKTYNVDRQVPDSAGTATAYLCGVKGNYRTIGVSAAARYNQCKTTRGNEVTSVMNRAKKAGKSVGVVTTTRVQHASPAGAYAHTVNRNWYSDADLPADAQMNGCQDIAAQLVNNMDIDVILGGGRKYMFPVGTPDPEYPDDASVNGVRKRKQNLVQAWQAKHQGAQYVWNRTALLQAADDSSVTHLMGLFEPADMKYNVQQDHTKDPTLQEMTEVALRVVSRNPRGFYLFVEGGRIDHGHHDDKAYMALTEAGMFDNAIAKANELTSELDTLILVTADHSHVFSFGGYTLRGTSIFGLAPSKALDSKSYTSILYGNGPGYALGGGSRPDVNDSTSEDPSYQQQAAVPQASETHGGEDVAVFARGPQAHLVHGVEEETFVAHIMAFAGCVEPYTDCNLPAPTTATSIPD
Briefly: ALP-triggered dephosphorylation and in situ self-assembly in solution (HPLC, DLS, TEM). The format is biochemical. Further details: amount of compound in the P-CyPt solution (HPLC, Fig. 2h) / mean size by TEM (Fig. 2i) / mean size by DLS (Fig. 2i): unit not given here. To be noted: for amount of compound in the P-CyPt solution (HPLC, Fig. 2h) / Pt release (ICP-OES, Fig. 2h) / mean size by DLS (Fig. 2i) / mean size by TEM (Fig. 2i): P-CyPt 10 μM, ALP 100 U/L 37 °C. How it is done: To evaluate the ALP-triggered dephosphorylation and in situ self-assembly process, a solution of P-CyPt (10 μM) in Tris buffer (1 mL) was incubated with ALP (100 U/L) at 37 °C. HPLC, DLS, and TEM analyses were performed at 0, 5, 10, 15, 20, and 30 min. To evaluate the GSH-triggered reduction and disassembly process, P-CyPt (10 μM) in Tris buffer (1 mL) was first incubated with ALP (100 U/L) at 37 °C for 30 min to allow the formation of Pt^IVNPs. The solution was then treated with 10 mM GSH at 37 °C, which was monitored by HPLC, DLS, and TEM at 10, 20, 30, 40, 50, and 60 min.

Here are results for three compounds from PMC9925730, “Controlled sequential in situ self-assembly and disassembly of a fluorogenic cisplatin prodrug for cancer theranostics” (Nature Communications, 2023).

Values joined by “and” are separate entries in the source; they are usually repeats but may differ in a detail not shown here. Identical values can stand only once.

With `[NH2][Pt]([NH2])([Cl])[Cl]` [CDDP, cisplatin], in series [1], the “tumor BL over the course of treatment” value was “markedly increased”; the “tumor BL intensity of liver” value was 861747.5; the “Normalized FL intensity of mCy (ex vivo liver tumor, Fig. 5h)” value stood at 0.90; the “Normalized BL intensity (ex vivo liver tumor, Fig. 5h)” value worked out at 0.87. Moreover, in the series on HeLa cells, the “[GSH] after treatment” value was determined as 11.81 ± 1.7 fmol/cell; the “[GSH] depletion” value is 8.3% and ~ 8.3%; the GSH-depletion turned out to be 8.30%. For the same compound, the “Intracellular GSH level after treatment (Supplementary Table S2)” value (shortened to “Intracellular GSH level after treatment”) in the series with HeLa cells (individual samples) was 10.2784 and 11.5154 and 13.6407. Moreover, the “Intracellular GSH level after treatment” value in the series with HeLa cells (mean of 3 samples) was found to be 11.81.

On to `CC1(C)C(/C=C/C2=C3Oc4cc(O)c(Cl)cc4C=C3CCC2)=[N+](CCCNC(=O)[C@@H](Cc2ccccc2)NC(=O)[C@@H](Cc2ccccc2)NC(=O)CCC(=O)[O][Pt]([NH2])([NH2])([OH])([Cl])[Cl])c2ccccc21` [CyPt], for which the “amount of compound in the P-CyPt solution (HPLC, Fig. 2h)” value on ALP (0 min) worked out at 0.00; on ALP (5 min) it was 28.25; on ALP (10 min), 54.36; on ALP (15 min), 71.75; on ALP (20 min) it was 94.94; on ALP (30 min) it was 100.00.

For the compound `CC1(C)C(/C=C/C2=C3Oc4cc(OP(=O)(O)O)c(Cl)cc4C=C3CCC2)=[N+](CCCNC(=O)[C@@H](Cc2ccccc2)NC(=O)[C@@H](Cc2ccccc2)NC(=O)CCC(=O)[O][Pt]([NH2])([NH2])([OH])([Cl])[Cl])c2ccccc21` [P-CyPt], in series [1], the “tumor BL over the course of treatment” value is “did not obviously increase”; the “tumor BL intensity of liver” value is 9376.5; the “Normalized FL intensity of mCy (ex vivo liver tumor, Fig. 5h)” value was 0.23; the “Normalized BL intensity (ex vivo liver tumor, Fig. 5h)” value was determined as 0.22. In series [1] (day 15, ex vivo BL imaging), the “metastatic tumor foci in the livers” value is on record as “No metastatic tumor foci”. Besides, the “conversion of P-CyPt into CyPt on incubation with ALP (HPLC)” value at ALP (100 U/L ALP, Tris buffer pH 8.0, after 30 min) is reported as “completely converted into CyPt”. Further, at ALP (0 min), the “Pt release (ICP-OES, Fig. 2h)” value is listed as 0%; the “amount of compound in the P-CyPt solution (HPLC, Fig. 2h)” value came out at 100.00; the “mean size by DLS (Fig. 2i)” value is 0.00; the “mean size by TEM (Fig. 2i)” value is given as 0.00. On ALP (5 min), the “Pt release (ICP-OES, Fig. 2h)” value came to 0%; the “amount of compound in the P-CyPt solution (HPLC, Fig. 2h)” value worked out at 72.64; the “mean size by DLS (Fig. 2i)” value was 45.78; the “mean size by TEM (Fig. 2i)” value was determined as 54.14. At ALP (10 min), the “Pt release (ICP-OES, Fig. 2h)” value is on record as 0%; the “amount of compound in the P-CyPt solution (HPLC, Fig. 2h)” value worked out at 46.65; the “mean size by DLS (Fig. 2i)” value was determined as 88.09; the “mean size by TEM (Fig. 2i)” value is listed as 87.54. At ALP (15 min), the “Pt release (ICP-OES, Fig. 2h)” value is given as 0%; the “amount of compound in the P-CyPt solution (HPLC, Fig. 2h)” value was 28.27; the “mean size by DLS (Fig. 2i)” value came to 112.94; the “mean size by TEM (Fig. 2i)” value is recorded as 105.56. In addition, on ALP (20 min), the “Pt release (ICP-OES, Fig. 2h)” value worked out at 0%; the “amount of compound in the P-CyPt solution (HPLC, Fig. 2h)” value is 6.15; the “mean size by DLS (Fig. 2i)” value is reported as 150.95; the “mean size by TEM (Fig. 2i)” value is on record as 121.94. Also, at ALP (30 min), the “Pt release (ICP-OES, Fig. 2h)” value is given as 0%; the “amount of compound in the P-CyPt solution (HPLC, Fig. 2h)” value is reported as 1.54; the “mean size by DLS (Fig. 2i)” value is 162.05; the “mean size by TEM (Fig. 2i)” value worked out at 152.65. In the series on HeLa cells, the “[GSH] after treatment” value was 8.07 ± 0.8 fmol/cell; the “[GSH] depletion” value is 37.3% and ~ 37.3%; the GSH-depletion is 37.30%. In addition, the “Intracellular GSH level after treatment” value in the series with HeLa cells (individual samples) is 7.3478 and 7.9326 and 8.9304. Besides, the “Intracellular GSH level after treatment” value with HeLa cells (mean of 3 samples) was determined as 8.07.
